From US8778871B2 (Takeda Pharmaceutical Company Limited, priority 2004, dated 2014)
Starred links: 1 amine or outer side, 2 acyl side, 3 side chain; linkers in the order of their positions; H or OH if unused. Non-standard residues stand in square brackets, D forms with d. Residues, ends and D or L forms follow the SMILES beside them. X8 = O=C([C@H](Cc1ccc2ccccc2n1)N[*:1])[*:2]; Arg(Me) = CNC(=N)NCCC[C@H](N)C(=O)O; Cha = N[C@@H](CC1CCCCC1)C(=O)O

Molecular target: T1, hOT7T175 (Homo sapiens, UniProt Q969F8, L364H)
T1 construct: expressed in transfected cells
Assay: Intracellular Ca ion level-increasing activity using FLIPR (180 seconds; specific activity to Metastin (1-54))
Assay type: cell-based
Conditions: hOT7T175/CHO, relative to Metastin (1-54) = 1

T1 sequence (Q969F8 whole entry L364H): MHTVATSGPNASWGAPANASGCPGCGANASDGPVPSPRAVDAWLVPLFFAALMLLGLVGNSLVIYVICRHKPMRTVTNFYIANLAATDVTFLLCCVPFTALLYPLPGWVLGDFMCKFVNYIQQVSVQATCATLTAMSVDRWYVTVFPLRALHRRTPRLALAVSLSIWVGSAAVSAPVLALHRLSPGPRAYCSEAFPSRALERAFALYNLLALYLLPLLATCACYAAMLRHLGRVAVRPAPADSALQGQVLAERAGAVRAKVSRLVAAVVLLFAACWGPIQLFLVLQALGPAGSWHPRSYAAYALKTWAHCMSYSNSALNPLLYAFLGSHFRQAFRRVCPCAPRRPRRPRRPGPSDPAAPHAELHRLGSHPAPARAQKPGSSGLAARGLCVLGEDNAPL

Compound | Specific Act. (intracellular Ca ion level-increasing activity, specific activity to Metastin (1-54))
CCCNC(=N)NCCC[C@H](NC(=O)[C@H](CC(C)C)NC(=O)CNC(=O)[C@H](Cc1ccccc1)NC(=O)[C@H](CO)NC(=O)[C@H](CC(N)=O)NC(=O)[C@H](Cc1c[nH]c2ccccc12)NC(=O)[C@H](CC(N)=O)NC(=O)[C@H](N)Cc1ccc(O)cc1)C(=O)N[C@@H](Cc1ccccc1)C(N)=O [Compound No. 193] | ½
CC(C)C[C@H](NC(=O)CNC(=O)[C@H](Cc1ccccc1)NC(=O)[C@H](CO)NC(=O)[C@H](CC(N)=O)NC(=O)[C@H](Cc1c[nH]c2ccccc12)NC(=O)[C@H](CC(N)=O)NC(=O)[C@@H](N)Cc1ccc(O)cc1)C(=O)N[C@@H](CCCNC(=N)N)C(=O)N[C@@H](Cc1cccc(F)c1)C(N)=O [Compound No. 197] | 10
CC(C)C[C@H](NC(=O)CNC(=O)[C@H](Cc1ccccc1)NC(=O)[C@H](CO)NC(=O)[C@H](CC(N)=O)NC(=O)[C@H](Cc1c[nH]c2ccccc12)NC(=O)[C@H](CC(N)=O)NC(=O)[C@@H](N)Cc1ccc(O)cc1)C(=O)N[C@@H](CCCNC(=N)N)C(=O)N[C@@H](Cc1ccc(F)c(F)c1)C(N)=O [Compound No. 198] | 10
CC(C)C[C@H](NC(=O)CNC(=O)[C@H](Cc1ccccc1)NC(=O)[C@H](CO)NC(=O)[C@H](CC(N)=O)NC(=O)[C@H](Cc1c[nH]c2ccccc12)NC(=O)[C@H](CC(N)=O)NC(=O)[C@@H](N)Cc1ccc(O)cc1)C(=O)N[C@@H](CCCNC(=N)N)C(=O)N[C@@H](Cc1ccc(Cl)c(Cl)c1)C(N)=O [Compound No. 199] | 3
CC(C)C[C@H](NC(=O)CNC(=O)[C@H](Cc1ccccc1)NC(=O)[C@H](CO)NC(=O)[C@H](CC(N)=O)NC(=O)[C@H](Cc1c[nH]c2ccccc12)NC(=O)[C@H](CC(N)=O)NC(=O)[C@@H](N)Cc1ccc(O)cc1)C(=O)N[C@@H](CCCNC(=N)N)C(=O)N[C@@H](Cc1cccc(C(F)(F)F)c1)C(N)=O [Compound No. 200] | 10
CC(C)C[C@H](NC(=O)CNC(=O)[C@H](Cc1ccccc1)NC(=O)[C@H](CO)NC(=O)[C@H](CC(N)=O)NC(=O)[C@H](Cc1c[nH]c2ccccc12)NC(=O)[C@H](CC(N)=O)NC(=O)[C@@H](N)Cc1ccc(O)cc1)C(=O)N[C@@H](CCCNC(=N)N)C(=O)N[C@@H](Cc1ccc2ccccc2n1)C(N)=O [Compound No. 201] (H-YNWNSFGLR[X8]-NH2) | 1
CNC(=N)NCCC[C@H](NC(=O)[C@H](CC(C)C)NC(=O)CNC(=O)[C@H](CC1CCCCC1)NC(=O)[C@H](CO)NC(=O)[C@H](CC(N)=O)NC(=O)[C@H](Cc1c[nH]c2ccccc12)NC(=O)[C@H](CC(N)=O)NC(=O)[C@H](N)Cc1ccc(O)cc1)C(=O)N[C@@H](Cc1ccccc1)C(N)=O [Compound No. 203, D-Tyr-Asn-Trp-Asn-Ser-Cha-Gly-Leu-Arg(Me)-Phe-NH2] (H-[dY]NWNS[Cha]GL[Arg(Me)]F-NH2) | 10
CNC(=N)NCCC[C@H](NC(=O)[C@H](CC(C)C)NC(=O)[C@H](C)NC(=O)[C@H](Cc1ccccc1)NC(=O)[C@H](CO)NC(=O)[C@H](CC(N)=O)NC(=O)[C@H](Cc1c[nH]c2ccccc12)NC(=O)[C@H](CC(N)=O)NC(=O)[C@H](N)Cc1ccc(O)cc1)C(=O)N[C@@H](Cc1ccccc1)C(N)=O [Compound No. 204] (H-[dY]NWNSFAL[Arg(Me)]F-NH2) | 5
CNC(=N)NCCC[C@H](NC(=O)[C@H](CC(C)C)NC(=O)CNC(=O)[C@H](Cc1ccccc1)NC(=O)[C@H](CO)NC(=O)[C@H](CC(N)=O)NC(=O)[C@@H](NC(=O)[C@H](CC(N)=O)NC(=O)[C@H](N)Cc1ccc(O)cc1)[C@@H](C)O)C(=O)N[C@@H](Cc1ccccc1)C(N)=O [Compound No. 205] (H-[dY]NTNSFGL[Arg(Me)]F-NH2) | 10
CNC(=N)NCCC[C@H](NC(=O)[C@@H](NC(=O)CNC(=O)[C@H](Cc1ccccc1)NC(=O)[C@H](CO)NC(=O)[C@H](CC(N)=O)NC(=O)[C@H](Cc1c[nH]c2ccccc12)NC(=O)[C@H](CC(N)=O)NC(=O)[C@H](N)Cc1ccc(O)cc1)C(C)C)C(=O)N[C@@H](Cc1ccccc1)C(N)=O [Compound No. 213] (H-[dY]NWNSFGV[Arg(Me)]F-NH2) | 2
CNC(=N)NCCC[C@H](NC(=O)[C@H](CC(C)C)NC(=O)CNC(=O)[C@H](Cc1ccccc1)NC(=O)[C@H](CO)NC(=O)[C@H](CC(N)=O)NC(=O)[C@H](Cc1c[nH]c2ccccc12)NC(=O)[C@H](CCC(N)=O)NC(=O)[C@H](N)Cc1ccc(O)cc1)C(=O)N[C@@H](Cc1ccccc1)C(N)=O [Compound No. 214] (H-[dY]QWNSFGL[Arg(Me)]F-NH2) | 10
CNC(=N)NCCC[C@H](NC(=O)[C@H](CC(C)C)NC(=O)CNC(=O)[C@H](Cc1ccccc1)NC(=O)[C@H](CO)NC(=O)[C@H](CC(N)=O)NC(=O)[C@H](Cc1c[nH]c2ccccc12)NC(=O)[C@@H](NC(=O)[C@H](N)Cc1ccc(O)cc1)[C@@H](C)O)C(=O)N[C@@H](Cc1ccccc1)C(N)=O [Compound No. 215] (H-[dY]TWNSFGL[Arg(Me)]F-NH2) | 10
CNC(=N)NCCC[C@H](NC(=O)[C@H](CC(C)C)NC(=O)CNC(=O)[C@H](Cc1ccccc1)NC(=O)[C@H](CO)NC(=O)[C@H](CC(N)=O)NC(=O)[C@H](Cc1c[nH]c2ccccc12)NC(=O)[C@H](N)CC(N)=O)C(=O)N[C@@H](Cc1ccccc1)C(N)=O [Compound No. 216] (H-[dN]WNSFGL[Arg(Me)]F-NH2) | 1
CCNC(=N)NCCC[C@H](NC(=O)[C@H](CC(C)C)NC(=O)CNC(=O)[C@H](Cc1ccccc1)NC(=O)[C@H](CO)NC(=O)[C@H](CC(N)=O)NC(=O)[C@H](Cc1c[nH]c2ccccc12)NC(=O)[C@H](CC(N)=O)NC(=O)[C@@H](N)Cc1ccc(O)cc1)C(=O)N[C@@H](Cc1ccccc1)C(N)=O [Compound No. 220] | 5
CNC(=N)NCCC[C@H](NC(=O)[C@H](CC(C)C)NC(=O)CNC(=O)[C@H](Cc1ccccc1)NC(=O)[C@H](CO)NC(=O)[C@H](CC(N)=O)NC(=O)[C@@H](Cc1c[nH]c2ccccc12)NC(=O)[C@H](N)Cc1ccc(O)cc1)C(=O)N[C@@H](Cc1ccccc1)C(N)=O [Compound No. 224, D-Tyr-D-Trp-Asn-Ser-Phe-Gly-Leu-Arg(Me)-Phe-NH2] (H-[dY][dW]NSFGL[Arg(Me)]F-NH2) | 2
CNC(=N)NCCC[C@H](NC(=O)[C@H](CC(C)C)NC(=O)CNC(=O)[C@H](Cc1ccccc1)NC(=O)[C@H](CO)NC(=O)[C@H](CC(N)=O)NC(=O)[C@@H](Cc1c[nH]c2ccccc12)NC(=O)[C@H](N)CC(N)=O)C(=O)N[C@@H](Cc1ccccc1)C(N)=O [Compound No. 225, D-Asn-D-Trp-Asn-Ser-Phe-Gly-Leu-Arg(Me)-Phe-NH2] (H-[dN][dW]NSFGL[Arg(Me)]F-NH2) | 1
